Experimental data reported in ChEMBL document CHEMBL1201862, “PubChem BioAssay data set” (2004).
Active and inactive are the calls of the source.

Legend:
[1] = biological target: Tyrosyl-DNA phosphodiesterase 2 (Homo sapiens, UniProt O95551); assay: potency against TDP2 phosphodiesterase activity – biochemical, epi absorbance, IC50, dose response (AID 743297)
[2] = biological target: T1, Caspase-3 (Homo sapiens, UniProt P42574); assay: SAR Analysis of small molecule inhibitors of Sentrin-specific proteases (SENPs) using a Caspase-3 Selectivity assay. [Related pubchem assays (depositor defined):AID2540, AID2599, AID434973, AID489001]; type: functional
T1 sequence (P42574 whole entry): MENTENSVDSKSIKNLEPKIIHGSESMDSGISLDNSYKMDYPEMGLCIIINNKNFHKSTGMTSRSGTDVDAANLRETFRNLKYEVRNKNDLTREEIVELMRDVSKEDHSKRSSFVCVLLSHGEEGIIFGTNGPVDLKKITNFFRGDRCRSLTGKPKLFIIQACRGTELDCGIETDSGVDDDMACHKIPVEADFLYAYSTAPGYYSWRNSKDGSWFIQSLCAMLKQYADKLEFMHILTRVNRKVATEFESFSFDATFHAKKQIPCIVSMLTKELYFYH

Chain of Tyrosyl-DNA phosphodiesterase 2 (O95551 whole entry): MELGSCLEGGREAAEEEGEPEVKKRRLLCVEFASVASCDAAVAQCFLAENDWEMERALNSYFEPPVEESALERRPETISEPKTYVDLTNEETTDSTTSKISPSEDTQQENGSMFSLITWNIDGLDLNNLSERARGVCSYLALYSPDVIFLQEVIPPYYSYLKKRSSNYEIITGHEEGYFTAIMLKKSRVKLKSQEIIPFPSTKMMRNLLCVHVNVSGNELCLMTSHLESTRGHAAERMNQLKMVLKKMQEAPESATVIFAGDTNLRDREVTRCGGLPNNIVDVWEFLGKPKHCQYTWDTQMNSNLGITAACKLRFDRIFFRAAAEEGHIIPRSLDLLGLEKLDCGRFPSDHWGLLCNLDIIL

Q: CCOC(=O)C1=C(COC(=O)c2ccc([N+](=O)[O-])s2)NC(=O)NC1C (configuration not stated) was tested. Which IC50 [1] did it give?
A: The IC50 was 52.5 µM (inactive).

Q: Which IC50 [2] does the source give for Oc1cccc(/C=N/Nc2cc(N3CCCC3)nc(N3CCCC3)n2)c1 here?
A: The IC50 was > 99 µM (inactive).
